Data reported in patent US11091517B2, “Peptide derivative and pharmaceutical composition containing same” (TOKUSHIMA UNIVERSITY, priority 2017, dated 2021).
Where two headings read alike, the source gives them in different places. *1 amine or outer side, *2 acyl side, *3 side chain or, on linkers, in order; H or OH if unused. Where a SMILES comes first, the peptide text is derived from it. Bridges are numbered along the chain shown (N, C = ends). NH(CH2)4NH = C(CCN[*:2])CN[*:1]

What was measured:
[1] = tested on: BIG3 phosphorylation; assay: BIG3 phosphorylation (Ser305, Ser1208) in SK-BR-3 and KPL-4 cells, immunoblot; assay type: cell-based, human; details: SK-BR-3 and KPL-4, 30 minutes; 10 μM H-89, 100 μg/mL trastuzumab, 10 nM lapatinib
[2] = molecular target: T1, PKA (Homo sapiens, UniProt P17612); assay: PKA activity of BIG3 immunoprecipitates from SK-BR-3 cells; assay type: cell-based
T1 construct: endogenous in cells; host or cells: SK-BR-3

[3] = tested on: PP1Cα; assay: PP1Cα activity of BIG3 immunoprecipitates from SK-BR-3 cells; assay type: cell-based, human; details: SK-BR-3, 24 hours; 10 μM H-89, 100 μg/mL trastuzumab, 10 nM lapatinib
[4] = tested on: PHB2 (Ser39) phosphorylation; assay: PHB2 (Ser39) phosphorylation in SK-BR-3 cells, immunoblot; assay type: cell-based, human; details: SK-BR-3, presence of 1 μM stERAP; 100 μg/mL trastuzumab, 10 nM lapatinib
[5] = tested on: PKCα; assay: PKCα activity of PKCα immunoprecipitates from SK-BR-3 cells; assay type: cell-based, human; details: SK-BR-3, 10 nM lapatinib in the presence of stERAP, 24 hours
Method: (A) Immunoblots are shown which indicate that PHB2 (Ser39) is phosphorylated in a PKCα-dependent manner in a HER2-positive breast cancer cell line. SK-BR-3 cells in which PKCα expression was suppressed by the siRNA method were treated for 24 hours with 1 μM stERAP, then cell lysate thereof was subjected to immunoprecipitation using an anti-PHB2 antibody, and immunoblot analyses were performed using the antibodies shown in the drawing. (B) PKCα activity by EGFR signaling in SK-BR-3 cells is shown. SK-BR-3 cells were treated for 24 hours with 1 μM stERAP, and with 10 nM lapatinib in the presence of stERAP, cell lysates thereof were subjected to immunoprecipitation using an anti-PKCα antibody, and PKCα activities were calculated using CREBtide as a substrate. Data represent the mean±standard error of three independent experiments.
The activities of protein kinase A (PKA) and protein kinase C alpha (PKCα) were measured by reacting the immunoprecipitates of BIG3 and PKCα with a synthetic substrate CREBtide ([…]) and 0.5 mM ATP in a kinase buffer (25 mM Hepes, pH 7.2, 25 mM MgCl2, 5 mM EDTA, 5 mM EGTA, 0.25 mM DTT) at 30° C. for 30 minutes, and by using an ADP-Glo kinase assay Kit (Promega, Fitchburg, Wis., USA).

[6] = tested on: HER2-HER3 interaction; assay: HER2-HER3 interaction, immunoprecipitation with anti-HER2 antibody; assay type: cell-based, human; details: SK-BR-3, 2 μM AZ3146 and 1 μM stERAP, 24 hours
[7] = tested on: HER2-Shc interaction; assay: HER2-Shc interaction, immunoprecipitation with anti-HER2 antibody; assay type: cell-based, human; details: SK-BR-3, 2 μM AZ3146 and 1 μM stERAP, 24 hours
[8] = tested on: BT-20; assay type: cell-based, human; details: 96 h
Method: (§1) For the single stERAP and double stERAP #46, peptides were added at a total of eleven concentrations prepared by three-fold serial dilution starting from 20 μM. For the double stERAP #45, peptides were added at a total of eight concentrations prepared by two-fold serial dilation starting from 50 μM. The number of viable cells were measured 96 hours after the peptide addition, and relative values thereof were calculated based on the negative control cells without peptide addition and plotted. Experiments using double stERAP #45 on the SW982 cell line were not carried out.
(§2) MDA-MB-231 cells and SW982 cells were cultured using Leibovitz's L-15 medium (Thermo Fisher Scientific) at 37° C. without CO2 concentration control. All media were used by supplementing 10% FBS (Thermo Fisher Scientific) and a 1% antibiotic/antimycotic solution (Wako Pure Chemical, Osaka, Japan).
(§3) SK-BR-3 cells, BT-20 cells, and MDA-MB-231 cells were seeded into 48-well plates at 1×10^4 cells/200 μL in each well, and SW982 cells were seeded into 48-well plates at 0.5×10^4 cells/200 μL in each well. 48 hours later, the medium in each well was exchanged to a medium supplemented with a peptide (single stERAP and double stERAP #46: three-fold serial dilution from 20 μM, double stERAP #45: two-fold serial dilution starting from 50 μM), and after culturing for another 96 hours, the level of cell growth was measured using the Cell Counting Kit-8 (Dojindo, Kumamoto, Japan). Data were obtained from three independent experiments, a graph (mean±standard deviation) was produced using a graphing and data analyzing software SigmaPlot (Systat Software, San Jose, Calif., USA), and the 50% inhibition concentration (IC50) of the peptide against cell growth was calculated.

[9] = tested on: SW982; assay type: cell-based, human; details: 96 h
Method: as §1, §2, §3

[10] = tested on: SK-BR-3; assay type: cell-based, human; details: 96 h
Method: as §1, §2, §3

[11] = tested on: MDA-MB-231; assay type: cell-based, human; details: 96 h
Method: as §1, §2, §3

[12] = molecular target: T2, chymotrypsin (Bos taurus, UniProt P00766); assay: Chymotrypsin resistance (HPLC); assay type: in vitro ADME; details: 1 μg chymotrypsin, 5 μg peptide, 37° C., 24 hours
T2 construct: purchased Sigma C7761
Method: The chromatograms for double stapled ERAP No. 45 (A) and double stapled ERAP No. 46 (B), when a double stapled ERAP was reacted with chymotrypsin at 37° C. for 24 hours, are shown. In the experiment, the double stapled ERAP-chymotrypsin reaction solutions were subjected to high performance liquid chromatography (reverse-phase column, 0.3 mL/min flow rate, gradient elution (solution A: 0.1% trifluoroacetic acid; solution B: 0.1% trifluoroacetic acid/acetonitrile, A/B=90/10 (0-20 min) to 40/60 (20-80 min))), and detection was carried out by UV at 210 nm.
Chymotrypsin resistance was analyzed by adding 1 μg of chymotrypsin (#C7761, Sigma) and 5 μg of double stapled ERAP in a buffer (50 mM Tris-HCl; pH 8.0, 10 mM CaCl2), allowing this to react at 37° C. for 24 hours, and then subjecting the whole amount to high-performance liquid chromatography (HPLC). For the HPLC, a reverse-phase column (Inertsil Peptides C18 250×3.0 mm I.D.; GL Science, Tokyo, Japan) was used, gradient elution was performed using Solution A (0.1% trifluoroacetic acid) and Solution B (0.1% trifluoroacetic acid/acetonitrile) (A/B=90/10 (0-20 min), 90/10-40/60 (20-80 min)) at a flow rate of 0.3 mL/min, and a chromatogram for each double stapled ERAP was obtained by UV detection at 210 nm.

[13] = molecular target: T3, BIG3-PHB2 interaction (Homo sapiens, UniProt Q99623); assay: Inhibition of BIG3-PHB2 interaction in MCF-7 cells (immunoprecipitation, Western blotting); assay type: cell-based; details: MCF7, 96 hours, 10 nM estrogen, read-out: inhibition rate of BIG3-PHB2 binding
T3 construct: endogenous in cells; host or cells: MCF-7
Method: (A, B) Inhibitory effect of double stapled ERAP No. 46 on BIG3-PHB2 interaction in MCF-7 cells was evaluated by Western blotting. […] Then, the cells were lysed, immunoprecipitation was performed using an anti-BIG3 antibody, and immunoblot analyses were performed using the antibodies indicated in the drawing. The binding inhibition rates are expressed as proportions to the band area for PHB2 in untreated cells which is set as 100.
For immunoblot analyses, after performing SDS-PAGE, the membranes blotted with proteins were blocked with 4% BlockAce solution (Dainippon Pharmaceutical, Osaka, Japan) for 3 hours and then incubated to react for 12 hours with antibodies against BIG3 (1:1,000) and PHB2 (1:1,000) (Abcam, Cambridge, UK). After allowing interaction with HRP-labeled secondary antibodies (anti-rat IgG-HRP for BIG3, 1:5,000; and anti-rabbit IgG-HRP for PHB2, 1:1,000) (Santa Cruz Biotechnology, Dallas, Tex., USA) for 1 hour, the blots were developed with the Enhanced Chemiluminescence (ECL) system (GE Healthcare, Buckinghamshire, UK) and scanned using the Image Reader LAS-3000 mini (Fujifilm, Tokyo, Japan). […]

[14] = tested on: MCF-7 cells; assay type: cell-based, human; details: for inhibition rate on estrogen-dependent cell growth: 96 h

T3 sequence (Q99623 2-299 limits assumed): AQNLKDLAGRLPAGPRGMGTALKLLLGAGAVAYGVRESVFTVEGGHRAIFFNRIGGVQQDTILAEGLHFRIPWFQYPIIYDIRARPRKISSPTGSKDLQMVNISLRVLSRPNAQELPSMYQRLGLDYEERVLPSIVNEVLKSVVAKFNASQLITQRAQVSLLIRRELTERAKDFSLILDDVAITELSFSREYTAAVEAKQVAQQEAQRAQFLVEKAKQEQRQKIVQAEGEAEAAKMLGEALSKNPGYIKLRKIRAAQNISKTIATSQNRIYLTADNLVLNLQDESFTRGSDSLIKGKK

IC50 [8] [nM] | IC50 [10] [nM] | IC50 [11] [nM] | degradation by chymotrypsin treatment (chromatogram) [12] | IC50 [14] [nM] | Compound | suppression of BIG3 phosphorylation (Ser305 and Ser1208) [1] | inhibition rate for PP1Cα activity [3] | other results
– | – | – | – | – | O=S(=O)(NCCNC/C=C/c1ccc(Br)cc1)c1cccc2cnccc12 [H-89] | nearly completely suppressed | 96% | inhibition rate for PKA activity ([2]; SK-BR-3, 24 hours, 10 μM H-89, 100 μg/mL trastuzumab, 10 nM lapatinib): 100%
– | – | – | – | – | CS(=O)(=O)CCNCc1ccc(-c2ccc3ncnc(Nc4ccc(OCc5cccc(F)c5)c(Cl)c4)c3c2)o1 [lapatinib] | not so involved in the suppression of BIG3 phosphorylation | about 15% | inhibition at 0.01 µM ([2]; SK-BR-3, read-out: inhibition rate for PKA activity): ~15%; decrease of PHB2 (Ser39) phosphorylation [4]: nearly completely suppressed; PKCα activity inhibition [5]: approximately 80%
– | – | – | – | – | AZ3146 | – | – | effect on stERAP inhibition of HER2-HER3 interaction [6]: nearly completely canceled the inhibitory effects; effect on stERAP inhibition of HER2-Shc interaction [7]: nearly completely canceled the inhibitory effects
74 | 20 | 143 | hardly showed its degradation | 430 | CSCC[C@H](NC(=O)[C@H](CCC(N)=O)NC(C)=O)C(=O)N[C@H]1CCC(=O)NCCCCNC(=O)CC[C@@H](C(=O)N[C@@H](CC(C)C)C(=O)N[C@@H](CCC(N)=O)C(=O)N[C@H]2CCC(=O)NCCCCNC(=O)CC[C@@H](C(N)=O)NC(=O)[C@H](CCCNC(=N)N)NC(=O)[C@H](CCC(N)=O)NC(=O)[C@H](CCCNC(=N)N)NC2=O)NC(=O)[C@H](CC(C)C)NC(=O)[C@H](CC(=O)O)NC(=O)[C@H](CO)NC1=O [double stapled ERAP No. 46] (Ac-QMESDLELQERQRE-NH2; linker 3-7, 10-14 via NH(CH2)4NH) | – | – | IC50 [9]: 26 nM; inhibition at 1 µM ([13]; 1 μM): 60%; inhibition at 10 µM ([13]; 10 μM): 95%; inhibition rate on estrogen-dependent cell growth ([14]; 10 μM): 91%
8600 | 2800 | 23700 | several degradation products | 2320 | CSCC[C@H](NC(=O)[C@H](CCC(N)=O)NC(C)=O)C(=O)N[C@H]1CCC(=O)NCCCCNC(=O)CC[C@@H](C(=O)N[C@H]2CCC(=O)NCCCCNC(=O)CC[C@@H](C(=O)N[C@@H](CCCNC(=N)N)C(N)=O)NC(=O)[C@H](CCCNC(=N)N)NC(=O)[C@H](CC(C)C)NC(=O)[C@H](CCC(N)=O)NC2=O)NC(=O)[C@H](CC(C)C)NC(=O)[C@H](CC(=O)O)NC(=O)[C@H](CO)NC1=O [double stapled ERAP No. 45] (Ac-QMESDLEEQLRER-NH2; linker 3-7, 8-12 via NH(CH2)4NH) | – | – | inhibition rate on estrogen-dependent cell growth ([14]; 1 μM): 21%
